Ends that are not written are not given here. Peptide text beside a SMILES is read from it. * marks the point of attachment. Biotin = O=C1N[C@H]2[C@H](CS[C@H]2CCCCC(=O)*)N1
Tests used:
[1] = target: T1, PDZ protein (GST-PDZ fusion) (Homo sapiens, UniProt Q92796); assay: G' assay (10 uM PL peptide), results of TABLE 7 and TABLE 12; type: binding; details: PDZ NeDLG
T1 construct: made in house; host or cells: E. coli (DH5alpha, BL21 or JM109)
T1 sequence (Q92796 1-817): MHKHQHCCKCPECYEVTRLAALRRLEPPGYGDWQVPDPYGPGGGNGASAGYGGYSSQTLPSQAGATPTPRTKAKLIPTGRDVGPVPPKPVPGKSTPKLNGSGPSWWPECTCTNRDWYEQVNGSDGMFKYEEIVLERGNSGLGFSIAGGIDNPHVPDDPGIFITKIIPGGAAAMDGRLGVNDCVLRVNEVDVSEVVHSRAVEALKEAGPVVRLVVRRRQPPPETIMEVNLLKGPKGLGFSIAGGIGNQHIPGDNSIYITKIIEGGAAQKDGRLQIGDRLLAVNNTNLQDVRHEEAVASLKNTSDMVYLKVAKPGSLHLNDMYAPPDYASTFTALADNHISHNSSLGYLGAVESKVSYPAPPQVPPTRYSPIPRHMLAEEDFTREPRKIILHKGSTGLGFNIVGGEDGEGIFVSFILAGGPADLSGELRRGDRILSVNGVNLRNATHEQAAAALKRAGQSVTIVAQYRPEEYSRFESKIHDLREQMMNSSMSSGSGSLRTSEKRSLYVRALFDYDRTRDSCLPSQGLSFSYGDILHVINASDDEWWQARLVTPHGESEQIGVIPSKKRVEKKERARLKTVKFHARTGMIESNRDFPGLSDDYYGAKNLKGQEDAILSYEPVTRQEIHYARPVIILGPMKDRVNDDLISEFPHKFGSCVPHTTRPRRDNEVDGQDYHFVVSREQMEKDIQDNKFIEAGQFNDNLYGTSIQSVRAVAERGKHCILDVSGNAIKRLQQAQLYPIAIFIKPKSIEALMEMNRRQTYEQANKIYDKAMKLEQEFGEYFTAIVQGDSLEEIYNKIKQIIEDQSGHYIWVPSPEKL
Method in brief: (§1)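 Biotin-PL peptide (N-term label), 10 uM vs GST-PDZ; protein 5 ug/ml by default. A450 nm binned: 1 = 0-1, 2 = 1-2, 3 = 2-3, 4 = 3-4, 5 = >4 on >2 repeats, 0 = no binding.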

[2] = target: T2, PDZ protein (GST-PDZ fusion) (Homo sapiens, UniProt Q13796); assay: as above; type: binding; details: PDZ hAPXL, PDZ Domain 1
T2 construct: made in house; host or cells: E. coli (DH5alpha, BL21 or JM109)
Method in brief: as §1

T2 sequence (Q13796 whole entry, the tested form may be a part): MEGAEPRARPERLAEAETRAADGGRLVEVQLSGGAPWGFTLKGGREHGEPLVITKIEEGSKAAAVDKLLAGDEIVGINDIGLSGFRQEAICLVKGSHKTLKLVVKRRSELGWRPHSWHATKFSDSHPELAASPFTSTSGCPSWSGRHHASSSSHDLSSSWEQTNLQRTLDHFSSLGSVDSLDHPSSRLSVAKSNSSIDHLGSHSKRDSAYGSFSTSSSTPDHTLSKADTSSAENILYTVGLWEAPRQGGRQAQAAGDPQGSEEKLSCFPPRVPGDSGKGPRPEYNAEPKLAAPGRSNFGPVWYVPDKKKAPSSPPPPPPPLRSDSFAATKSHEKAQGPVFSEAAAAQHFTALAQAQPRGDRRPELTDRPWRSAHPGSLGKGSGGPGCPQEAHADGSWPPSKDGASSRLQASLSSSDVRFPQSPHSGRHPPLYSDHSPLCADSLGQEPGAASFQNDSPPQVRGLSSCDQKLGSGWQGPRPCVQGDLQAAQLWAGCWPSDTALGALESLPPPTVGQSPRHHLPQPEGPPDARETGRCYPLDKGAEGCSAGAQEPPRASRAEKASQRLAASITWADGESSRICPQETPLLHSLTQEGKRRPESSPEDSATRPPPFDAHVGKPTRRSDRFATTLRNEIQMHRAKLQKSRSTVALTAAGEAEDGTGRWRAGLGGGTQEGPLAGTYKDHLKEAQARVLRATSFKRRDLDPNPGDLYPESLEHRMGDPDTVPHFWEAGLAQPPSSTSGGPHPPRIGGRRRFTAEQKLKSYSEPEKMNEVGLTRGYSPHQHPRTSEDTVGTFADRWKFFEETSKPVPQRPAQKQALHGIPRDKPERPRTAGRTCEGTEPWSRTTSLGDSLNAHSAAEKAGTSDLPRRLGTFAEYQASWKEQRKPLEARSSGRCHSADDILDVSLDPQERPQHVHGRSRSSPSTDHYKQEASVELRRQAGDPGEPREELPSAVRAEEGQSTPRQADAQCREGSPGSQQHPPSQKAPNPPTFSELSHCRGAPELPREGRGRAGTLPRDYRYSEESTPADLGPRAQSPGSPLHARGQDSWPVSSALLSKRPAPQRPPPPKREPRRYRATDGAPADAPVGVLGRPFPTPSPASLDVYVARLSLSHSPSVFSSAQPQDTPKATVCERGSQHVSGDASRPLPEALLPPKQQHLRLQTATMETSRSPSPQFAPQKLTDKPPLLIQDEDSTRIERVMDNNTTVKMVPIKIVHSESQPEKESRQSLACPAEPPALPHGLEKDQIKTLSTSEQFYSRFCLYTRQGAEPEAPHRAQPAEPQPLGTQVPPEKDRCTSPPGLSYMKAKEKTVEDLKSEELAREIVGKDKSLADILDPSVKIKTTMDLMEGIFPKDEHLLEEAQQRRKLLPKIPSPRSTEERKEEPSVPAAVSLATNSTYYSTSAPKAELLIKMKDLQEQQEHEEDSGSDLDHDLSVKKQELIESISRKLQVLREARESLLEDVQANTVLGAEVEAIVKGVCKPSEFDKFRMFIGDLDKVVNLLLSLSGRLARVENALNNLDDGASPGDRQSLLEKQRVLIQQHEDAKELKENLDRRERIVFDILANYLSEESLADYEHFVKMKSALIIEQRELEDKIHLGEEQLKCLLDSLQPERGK

| Compound | Classification ([1]; PDZ Domain 1, 2) | Classification [2] | Classification ([1]; PDZ Domain 1) | Classification ([1]; PDZ Domain 2) | Classification ([1]; PDZ Domain 3) |
| --- | --- | --- | --- | --- | --- |
| CC[C@H](C)[C@H](NC(=O)[C@H](Cc1c[nH]cn1)NC(=O)[C@H](C)NC(=O)[C@H](C)NC(=O)[C@H](CO)NC(=O)[C@@H]1CCCN1C(=O)[C@H](CCCNC(=N)N)NC(=O)[C@H](CC(=O)O)NC(=O)[C@H](CCCCN)NC(=O)[C@@H]1CCCN1C(=O)[C@H](CC(=O)O)NC(=O)[C@H](CCC(=O)O)NC(=O)CCCC[C@@H]1SC[C@@H]2NC(=O)N[C@@H]21)C(=O)N[C@H](C(=O)N[C@@H](CCC(=O)O)C(=O)N[C@@H](C)C(=O)N[C@@H](CC(C)C)C(=O)N[C@@H](CCC(=O)O)C(=O)N[C@H](C(=O)N[C@@H](CC(=O)O)C(=O)N[C@H](C(=O)O)C(C)C)[C@@H](C)O)C(C)C [PDZ-binding kinase (PBK)] (Biotin-EDPKDRPSAAHIVEALETDV-OH; C-terminus assumed) | 1 (A450 nm 0-1) |  |  |  |  |
| RNIEEVYVGGKQVVPFSSSV (Biotin-RNIEEVYVGGKQVVPFSSSV) [Nedasin (s-form)] | 2 (A450 nm 1-2) |  |  |  |  |
| GGGGGSGGGGGSGIESVKI [GLUR2 (glutamate receptor 2-modified)] | 2 (A450 nm 1-2) |  |  |  |  |
| A2AC_HUMAN (Modified) (Biotin-DFRPSFKHILFRRARRGFRQ; not fully specified) |  | 3 (A450 nm 2-3) |  |  |  |
| CC(C)C[C@H](NC(=O)[C@H](C)NC(=O)[C@@H](NC(=O)[C@H](CCC(=O)O)NC(=O)[C@H](CCCNC(=N)N)NC(=O)[C@H](CCCNC(=N)N)NC(=O)CNC(=O)[C@H](CCC(N)=O)NC(=O)[C@H](CC(C)C)NC(=O)[C@H](CCCNC(=N)N)NC(=O)CNC(=O)CNC(=O)[C@H](CCCNC(=N)N)NC(=O)[C@H](C)NC(=O)[C@H](CO)NC(=O)[C@H](CCCNC(=N)N)NC(=O)CNC(=O)CNC(=O)[C@H](C)NC(=O)[C@H](C)NC(=O)CCCC[C@@H]1SC[C@@H]2NC(=O)N[C@@H]21)[C@@H](C)O)C(=O)O [HPV E6 33 (modified)] (Biotin-AAGGRSARGGRLQGRRETAL-OH; C-terminus assumed) | 5 (A450 nm of 4 more than 2× repeated) | 3 (A450 nm 2-3) | 1 (A450 nm 0-1) | 2 (A450 nm 1-2) | 1 (A450 nm 0-1) |
| VHDAESSDEDGYDWGPATDL (Biotin-VHDAESSDEDGYDWGPATDL) [zona occludens 3 (ZO-3)] |  | 2 (A450 nm 1-2) |  |  |  |
| CC[C@H](C)[C@H](NC(=O)[C@H](CCC(=O)O)NC(=O)[C@H](CO)NC(=O)[C@H](CCC(=O)O)NC(=O)[C@H](CCCNC(=N)N)NC(=O)[C@H](CCCNC(=N)N)NC(=O)[C@H](CC(C)C)NC(=O)[C@@H]1CCCN1C(=O)[C@H](CCCNC(=N)N)NC(=O)[C@@H]1CCCN1C(=O)[C@H](CCC(=O)O)NC(=O)[C@H](CC(C)C)NC(=O)[C@@H]1CCCN1C(=O)[C@@H](NC(=O)[C@H](CO)NC(=O)[C@H](C)NC(=O)[C@H](CCC(N)=O)NC(=O)[C@H](CC(N)=O)NC(=O)[C@H](Cc1c[nH]cn1)NC(=O)[C@H](CC(C)C)NC(=O)CCCC[C@@H]1SC[C@@H]2NC(=O)N[C@@H]21)C(C)C)C(=O)O [Kir2.1 (inwardly rect. K+ channel)] (Biotin-LHNQASVPLEPRPLRRESEI-OH; C-terminus assumed) | 1 (A450 nm 0-1) |  |  |  |  |
| CC[C@H](C)[C@H](NC(=O)[C@H](CO)NC(=O)[C@H](CCC(=O)O)NC(=O)[C@H](Cc1ccc(O)cc1)NC(=O)[C@H](CC(=O)O)NC(=O)[C@H](CC(N)=O)NC(=O)[C@H](CCC(=O)O)NC(=O)[C@H](CCCCN)NC(=O)CCCC[C@@H]1SC[C@@H]2NC(=O)N[C@@H]21)C(=O)N[C@@H](CO)C(=O)N[C@@H](CC(=O)O)C(=O)N[C@@H](CC(C)C)C(=O)N[C@@H](CCC(N)=O)C(=O)N[C@@H](CCC(N)=O)C(=O)NCC(=O)N[C@@H](CCCNC(=N)N)C(=O)N[C@@H](CC(=O)O)C(=O)N[C@H](C(=O)N[C@H](C(=O)N[C@@H](CCCNC(=N)N)C(=O)N[C@@H](CC(C)C)C(=O)O)[C@@H](C)O)[C@@H](C)CC [PAG] (Biotin-KENDYESISDLQQGRDITRL-OH; C-terminus assumed) |  | 2 (A450 nm 1-2) |  |  |  |
| TQGFPGPATWRRISSLESEV | 5 (A450 nm of 4 more than 2× repeated) | 1 (A450 nm 0-1) | 2 (A450 nm 1-2) | 5 (A450 nm of 4 more than 2× repeated) | 1 (A450 nm 0-1) |
| CC[C@H](C)[C@H](NC(=O)[C@H](CO)NC(=O)[C@@H](NC(=O)[C@H](Cc1ccccc1)NC(=O)[C@H](CO)NC(=O)CCCC[C@@H]1SC[C@@H]2NC(=O)N[C@@H]21)[C@@H](C)O)C(=O)N[C@@H](CC(C)C)C(=O)N[C@H](C(=O)N[C@@H](CS)C(=O)N[C@@H](Cc1c[nH]cn1)C(=O)N[C@@H](CCC(N)=O)C(=O)N[C@@H](CCCNC(=N)N)C(=O)N[C@@H](CCCNC(=N)N)C(=O)N[C@H](C(=O)N[C@@H](CCC(N)=O)C(=O)N[C@@H](CCCNC(=N)N)C(=O)N[C@@H](CCCCN)C(=O)N[C@@H](CCC(=O)O)C(=O)N[C@H](C(=O)N[C@H](C(=O)N[C@@H](C)C(=O)O)C(C)C)[C@@H](C)O)[C@@H](C)O)[C@@H](C)O [GluR5-2 (rat)] | 5 (A450 nm of 4 more than 2× repeated) |  |  | 1 (A450 nm 0-1) | 2 (A450 nm 1-2) |
| CC(C)C[C@H](NC(=O)[C@H](CCCNC(=N)N)NC(=O)CNC(=O)CNC(=O)[C@H](CCCNC(=N)N)NC(=O)[C@H](C)NC(=O)[C@@H]1CCCN1C(=O)[C@H](CCCNC(=N)N)NC(=O)CNC(=O)CNC(=O)[C@@H](NC(=O)[C@H](C)NC(=O)CCCC[C@@H]1SC[C@@H]2NC(=O)N[C@@H]21)C(C)C)C(=O)N[C@@H](CCC(N)=O)C(=O)NCC(=O)N[C@@H](CCCNC(=N)N)C(=O)N[C@@H](CCCNC(=N)N)C(=O)N[C@@H](CCC(N)=O)C(=O)N[C@H](C(=O)N[C@@H](CCC(N)=O)C(=O)N[C@H](C(=O)O)C(C)C)[C@@H](C)O [HPV E6 58 (modified)] (Biotin-AVGGRPARGGRLQGRRQTQV-OH; C-terminus assumed) | 5 (A450 nm of 4 more than 2× repeated) |  | 1 (A450 nm 0-1) | 5 (A450 nm of 4 more than 2× repeated) | 2 (A450 nm 1-2) |
| CC[C@H](C)[C@H](NC(=O)CNC(=O)[C@H](CO)NC(=O)[C@H](Cc1ccccc1)NC(=O)[C@@H](NC(=O)[C@H](CS)NC(=O)CNC(=O)CNC(=O)[C@H](C)NC(=O)[C@@H]1CCCN1C(=O)[C@@H](NC(=O)[C@@H]1CCCN1C(=O)CCCC[C@@H]1SC[C@@H]2NC(=O)N[C@@H]21)[C@@H](C)CC)[C@@H](C)O)C(=O)N[C@@H](Cc1ccccc1)C(=O)N1CCC[C@H]1C(=O)N[C@H](C(=O)N[C@@H](CC(C)C)C(=O)N[C@H](C(=O)N[C@@H](CO)C(=O)N1CCC[C@H]1C(=O)N[C@@H](CC(C)C)C(=O)O)[C@@H](C)O)[C@@H](C)O [KIA 1481] (Biotin-PIPAGGCTFSGIFPTLTSPL-OH; C-terminus assumed) |  | 5 (A450 nm of 4 more than 2× repeated) |  |  |  |
| CC(C)C[C@H](NC(=O)[C@H](CC(=O)O)NC(=O)[C@H](CO)NC(=O)[C@H](CCC(=O)O)NC(=O)CNC(=O)[C@H](Cc1ccc(O)cc1)NC(=O)[C@H](CC(C)C)NC(=O)[C@H](C)NC(=O)[C@H](CO)NC(=O)[C@H](CO)NC(=O)[C@H](Cc1ccccc1)NC(=O)[C@H](C)NC(=O)[C@H](C)NC(=O)[C@H](Cc1ccc(O)cc1)NC(=O)[C@H](CC(=O)O)NC(=O)[C@H](CC(C)C)NC(=O)[C@H](C)NC(=O)CNC(=O)[C@@H]1CCCN1C(=O)[C@@H](NC(=O)CCCC[C@@H]1SC[C@@H]2NC(=O)N[C@@H]21)C(C)C)C(=O)O [a-actinin 2] (Biotin-VPGALDYAAFSSALYGESDL-OH; C-terminus assumed) |  | 5 (A450 nm of 4 more than 2× repeated) |  |  |  |
| APC—adenomatous polyposis coli protein (ESSGTQSPKRHSGSYLVTSV) | 4 (A450 nm 3-4) |  |  |  |  |

Source: patent publication US20050282743A1, “Molecular interactions in cells” (Arbor Vita Corporation, priority 2001, published 2005)
